Columns and labels:
[1] = system: Phaedon cochleariae; experiment: Phaedon cochleariae spray test; settings: 100 g/ha; after 7 days
[2] = system: Myzus persicae; experiment: Myzus persicae spray test (Chinese cabbage leaf discs); type: in vivo; settings: 100 g/ha; after 6 days
Procedure: (§1) After 6 days, the efficacy in % is determined.

[3] = system: Ctenocephalides felis; experiment: Ctenocephalides felis oral test; type: in vivo; settings: 100 ppm in citrated cattle blood; after 2 days
[4] = system: Boophilus microplus; experiment: Boophilus microplus injection test; type: in vivo; settings: 20 μg/animal; assessed after 7 days
Procedure: (§2) • Solvent: dimethyl sulfoxide
1 μl of the active ingredient solution is injected into the abdomen of 5 engorged adult female cattle ticks (Boophilus microplus). The animals are transferred into dishes and kept in a climate-controlled room.

[5] = system: Musca domestica; experiment: Musca domestica test; type: in vivo; settings: 100 ppm; adult houseflies; after 2 days
Procedure: as §2
To produce a suitable active ingredient formulation, 10 mg of active ingredient are mixed with 0.5 ml of dimethyl sulfoxide, and the concentrate is diluted with water to the desired concentration.
Vessels containing a sponge treated with sugar solution and the active ingredient formulation of the desired concentration are populated with 10 adult houseflies (Musca domestica).

[6] = system: Ctenocephalides felis; experiment: Ctenocephalides felis in vitro contact test with adult cat fleas; type: in vivo; settings: application rate 5 μg/cm^2 (=500 g/ha); after 48 h; dead or moribund fleas
Procedure: For the coating of the test tubes, 9 mg of active ingredient are first dissolved in 1 ml of acetone p.a. and then diluted to the desired concentration with acetone p.a. 250 μl of the solution are distributed homogeneously on the inner walls and the base of a 25 ml glass tube by turning and rocking on an orbital shaker (rocking rotation at 30 rpm for 2 h). With 900 ppm of active ingredient solution and internal surface area 44.7 cm^2, given homogeneous distribution, an area-based dose of 5 μg/cm^2 is achieved.
After the solvent has evaporated off, the tubes are populated with 5-10 adult cat fleas (Ctenocephalides felis), sealed with a perforated plastic lid and incubated in a horizontal position at room temperature and ambient humidity. After 48 h, efficacy is determined. To this end, the tubes are stood upright and the fleas are knocked to the base of the tube. Fleas which remain motionless at the base or move in an uncoordinated manner are considered to be dead or moribund.
100% efficacy means that all the fleas were dead or moribund. 0% efficacy means that no fleas were harmed.

[7] = system: Tetranychus urticae; experiment: Tetranychus urticae spray test, OP-resistant (bean leaf discs); type: in vivo; settings: 100 g/ha; after 6 days
Procedure: as §1

[8] = system: Spodoptera frugiperda; experiment: Spodoptera frugiperda spray test; type: in vivo; settings: 100 g/ha; after 7 days
[9] = system: cattle ticks (Boophilus microplus) Parkhurst strain, SP-resistant; experiment: Boophilus microplus dip test; type: in vivo; settings: 100 ppm; assessed after 7 days
Procedure: • Test animals: cattle ticks (Boophilus microplus) Parkhurst strain, SP-resistant • Solvent: dimethyl sulfoxide
10 mg of active ingredient are dissolved in 0.5 ml of dimethyl sulfoxide. To produce a suitable formulation, the active ingredient solution is diluted with water to the concentration desired in each case.
This active ingredient formulation is pipetted into tubes. 8-10 engorged adult female cattle ticks (Boophilus microplus) are transferred into a further tube with holes. The tube is immersed into the active ingredient formulation, and all the ticks are completely wetted. After the liquid has run out, the ticks are transferred on filter discs into plastic dishes and stored in a climate-controlled room.
Efficacy is assessed after 7 days by laying of fertile eggs. Eggs which are not visibly fertile are stored in a climate-controlled cabinet until the larvae hatch after about 42 days. An efficacy of 100% means that none of the ticks has laid any fertile eggs; 0% means that all the eggs are fertile.

[10] = system: Rhipicephalus sanguineus; experiment: Rhipicephalus sanguineus in vitro contact test with adult brown dog ticks; type: in vivo; settings: after 48 h
Method in brief: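 Efficacy, as % of ticks dead or moribund, was judged 48 h after placing 5-10 adult brown dog ticks in acetone-coated tubes (5 μg/cm^2 from 900 ppm) kept dark at room temperature. Ticks unable to climb away from a 45-50° C hotplate within 5 min counted as affected.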

[11] = application rate 5 μg/cm^2 (=500 g/ha), dead or moribund ticks

| SMILES | efficacy [1] [%] | efficacy [2] [%] | efficacy (rate of extermination) [3] [%] | efficacy (laying of fertile eggs) [4] [%] | efficacy (rate of extermination) [5] [%] | efficacy [6] [%] | efficacy [7] [%] | efficacy [8] [%] | efficacy (laying of fertile eggs) [9] [%] | efficacy [10, 11] [%] | efficacy ([10]; application rate 1 μg/cm^2 (=100 g/ha)) [%] |
| --- | --- | --- | --- | --- | --- | --- | --- | --- | --- | --- | --- |
| CCC(=O)N(C)Cc1cc(-c2cnn(-c3c(Cl)cc(C(F)(C(F)(F)F)C(F)(F)F)cc3Cl)c2)cnc1Cl [Ia-134] | 100 | 100 | 100 | 100 | 100 | 100 | 100 | 100 | – | – | – |
| CC(=O)NCc1cc(-c2cnn(-c3c(Cl)cc(C(F)(C(F)(F)F)C(F)(F)F)cc3C(F)F)c2)cnc1Cl [Ia-145] | 100 | 90 | 100 | 100 | 100 | – | 100 | 100 | 100 | – | – |
| CC(=O)NCc1c(F)ccc(-c2cnn(-c3c(Cl)cc(C(F)(C(F)(F)F)C(F)(F)F)cc3C(F)(F)F)c2)c1F [Ia-147] | 100 | 90 | 100 | 100 | 100 | 100 | 100 | 100 | – | 100 | – |
| CC(=O)NCc1c(F)ccc(-c2cnn(-c3c(Cl)cc(C(F)(C(F)(F)F)C(F)(F)F)cc3Cl)c2)c1F [Ia-149] | 100 | 90 | 100 | 100 | 100 | 100 | 100 | 100 | – | – | – |
| CCC(=O)NCc1cccc(-c2cnn(-c3c(Cl)cc(C(F)(C(F)(F)F)C(F)(F)F)cc3OC(F)F)c2)c1F [Ia-159] | 100 | 90 | 100 | 100 | 100 | – | – | 100 | – | – | – |
| CCC(=O)NCc1cc(-c2cnn(-c3c(Cl)cc(C(F)(C(F)(F)F)C(F)(F)F)cc3C(F)(F)F)c2)ccc1F [Ia-83] | 100 | – | 100 | 100 | 100 | 100 | 90 | 100 | 80 | 100 | – |
| CC(=O)NCc1cc(-c2cnn(-c3c(Cl)cc(C(F)(C(F)(F)F)C(F)(F)F)cc3S(C)(=O)=O)c2)ccc1F [Ia-11] | 100 | 100 | 100 | 100 | 100 | – | 100 | – | – | 100 | – |
| CCC(=O)NCc1cc(-c2cnn(-c3c(Cl)cc(C(F)(C(F)(F)F)C(F)(F)F)cc3C(F)F)c2)ccc1Cl [Ia-115] | 100 | – | 100 | 100 | 100 | 100 | 100 | 100 | 100 | 100 | – |
| CCC(=O)NCc1cc(-c2cnn(-c3c(C)cc(C(F)(C(F)(F)F)C(F)(F)F)cc3Cl)c2)ccc1C [Ia-76] | 100 | 90 | 100 | 100 | 100 | 100 | 100 | 100 | – | 100 | – |
| CCC(=O)NCc1cc(-c2cnn(-c3c(C)cc(C(F)(C(F)(F)F)C(F)(F)F)cc3C)c2)ccc1Cl [Ia-93] | 100 | – | 100 | 100 | 100 | 100 | 100 | 100 | 95 | 100 | – |
| CC(=O)NCc1cc(-c2cnn(-c3c(Cl)cc(C(F)(C(F)(F)F)C(F)(F)F)cc3C(F)F)c2)ccc1Cl [Ia-106] | 100 | – | 100 | 100 | 100 | – | 100 | 100 | 100 | – | – |
| CCC(=O)NCc1cccc(-c2cnn(-c3c(Cl)cc(C(F)(C(F)(F)F)C(F)(F)F)cc3Cl)c2)c1F [Ia-152] | 100 | 100 | 100 | 100 | 100 | – | – | 100 | – | – | – |
| CC(=O)NCc1cc(-c2cnn(-c3c(C)cc(C(F)(C(F)(F)F)C(F)(F)F)cc3Cl)c2)ccc1C [Ia-75] | 100 | – | 100 | 100 | 100 | 100 | 100 | 100 | 100 | 100 | – |
| CCC(=O)NCc1cc(-c2cnn(-c3c(Cl)cc(C(F)(C(F)(F)F)C(F)(F)F)cc3C(F)(F)F)c2)ccc1C [Ia-80] | 83 | 90 | 100 | 100 | 100 | 100 | 100 | 100 | – | 100 | – |
| CC(=O)NCc1cc(-c2cnn(-c3c(C)cc(C(F)(C(F)(F)F)C(F)(F)F)cc3Cl)c2)ccc1Cl [Ia-84] | 100 | 90 | 100 | 100 | 100 | – | 100 | 100 | 100 | – | – |
| CC(=O)NCc1cc(-c2cnn(-c3c(Cl)cc(C(F)(C(F)(F)F)C(F)(F)F)cc3Br)c2)ccc1Cl [Ia-91] | 100 | – | 100 | 100 | 100 | – | 100 | 100 | 80 | – | – |
| CC(=O)N(C)Cc1cc(-c2cnn(-c3c(Cl)cc(C(F)(C(F)(F)F)C(F)(F)F)cc3OC(F)(F)F)c2)cnc1Cl [Ia-136] | 100 | 100 | 100 | 100 | 100 | 100 | 100 | 100 | – | – | – |
| CC(=O)NCc1cc(-c2cnn(-c3c(Cl)cc(C(F)(C(F)(F)F)C(F)(F)F)cc3OC(F)F)c2)cnc1Cl [Ia-156] | 100 | 90 | – | – | – | – | 100 | 100 | – | – | – |
| CC(=O)NCc1cccc(-c2cnn(-c3c(Cl)cc(C(F)(C(F)(F)F)C(F)(F)F)cc3OC(F)F)c2)c1F [Ia-155] | 100 | 90 | 100 | 100 | 100 | – | – | 100 | – | – | – |
| CC(=O)NCc1cc(-c2cnn(-c3c(Cl)cc(C(F)(C(F)(F)F)C(F)(F)F)cc3C#N)c2)ccc1C [Ia-96] | – | – | 100 | 100 | – | – | 100 | 100 | 90 | – | 100 |

From patent publication US10357036B2, “Compounds for controlling arthropods” (priority 2015, dated 2019)
